In patent publication US12097174B2, “Methods and agents that enhance myogenic progenitor cell engraftment” (President and Fellows of Harvard College, priority 2018, dated 2024):

Experiments:
ZeMPCs = experiment: RNA sequencing of treated ZeMPCs; type: cell-based, zebrafish
Text: To gain insight into the mechanisms through which LPA and NFA treatment might enhance donor cell engraftment in vertebrate muscle, RNA sequencing analysis were next performed in treated ZeMPCs and in mouse satellite cells. Comparison of differential gene expression in NFA-treated or LPA-treated cells to vehicle-treated cells indicated upregulation of calcium-dependent genes in response to these compounds in both ZeMPCs (FIG. 21) and mouse satellite cells (FIGS. 15A and 15B).
Isolated mouse muscle satellite cells and ZeMPCs were used to prepare RNA after in vitro chemical treatment. Total RNA was isolated by the micro RNeasy kit (QIAGEN). cDNA was prepared using SMART Seq v4 Ultra Low RNA-Seq kit for 48 reactions (Takara) and a Nextera kit was used for library construction. Sequencing data FASTQ files for samples were processed in tophat-cufflinks workflow in a Linux server operating system to output gene-level abundance estimates and statistical inference as gene-level raw counts. Those raw counts for samples were input into the cuffdiff for differential gene expression analysis. The assigned GEO accession number for the RNA sequencing data is GSE143801.

mouse satellite cells = experiment: Mouse satellite cell transplantation into pre-injured TA muscle, engraftment by bioluminescence imaging (BLI); type: in vivo; conditions: for BLI radiance (mean±SEM): 10 μM NFA (n=13) or 5 μM LPA (n=17) prior to transplant, vehicle 8,214,000±1,462,346; for engraftment efficiency of mouse satellite cells: 4 h at 37° C. with 10 μM NFA or 5 μM LPA, 5000 cells per recipient
Description: Specifically, BLI radiance (mean±SEM) for muscle precursors treated with 10 μM NFA or 5 μM LPA prior to transplant were 27,236,923±6,849,754 p/s (n=13) and 25,637,059±4,410,195 p/s (n=17), respectively, in comparison to 8,214,000±1,462,346 p/s (n=15) vehicle-treated cells (1-way ANOVA between vehicle-treated group and either NFA or LPA treated group, p≤0.01) (FIGS. 8A-8C).
To this end, mouse satellite cells were again sorted from double-transgenic (luc+GFP+) mice and exposed them to NFA, LPA, or vehicle (DMSO) under the optimal dose conditions established using the fish model (see above; 4 h. treatment at 37° C. with 10 μM of NFA or 5 μM of LPA), prior to transplant. Compound-treated cells were then recovered and, after washing out the media containing the compounds (NFA, LPA or DMSO), counted and transplanted at 5000 cells per recipient into the pre-injured TA muscles of non-transgenic FVB hosts. The kinetics of muscle engraftment were subsequently assessed by weekly BLI imaging of transplanted limbs. Similar to the fish experiments, both NFA and LPA enhanced the engraftment efficiency of mouse satellite cells in these in vivo transplantation assays (FIGS. 14C and 14D), indicating conserved effects of these pro-myogenic compounds on mammalian muscle precursor cells.
Mouse satellite cells were isolated as previously described (Maesner et al., 2016; Sherwood et al., 2004; Xu et al., 2013). 25 μl (0.03 mg/ml) of cardiotoxin (CDTX) (Latoxan) was injected 24 h prior to transplantation into the TA muscle of recipient mice (FVB/NJ). Luc-GFP tagged satellite cells were isolated and plated on a collagen/laminin-coated plate and treated with NFA (10 μM), LPA (5 μM) or DMSO, as the vehicle control, in culture media for 4 hours at 37° C. The culture media contained 78% F10 (GIBCO), 20% horse serum (Atlanta Biologics), 1% penicillin-streptomycin (Invitrogen), 1% GlutaMAX (Invitrogen), and 5 ng/ml bFGF (Sigma). After 4 hours, cells were washed with DPBS, harvested, and counted, followed by transplantation of 5000 satellite cells intramuscularly into the CDTX pre-injured TA of FVB recipients.
Mice were anesthetized with isoflurane and weighed. 150 mg/kg of luciferin (Goldbio) was administered by IP injection. BLI was acquired using IVIS Spectrum every 2 minutes, at F-stop=1.0 at 5 min after luciferin injection. The acquired images were analyzed and the highest captured radiance in the region of interest (ROI) was measured.

Compound	expression of calcium-dependent genes vs vehicle-treated cells (ZeMPCs)	BLI radiance (mean±SEM) (mouse satellite cells)	engraftment efficiency of mouse satellite cells (mouse satellite cells)
O=C(O)c1cccnc1Nc1cccc(C(F)(F)F)c1 [NFA, niflumic acid]	upregulation	27,236,923±6,849,754 p/s	enhanced
lysophosphatidic acid [LPA]	upregulation	25,637,059±4,410,195 p/s	enhanced
